Reference: publication PMC5605456 (Biochemistry, 2017)
Where two headings read alike, the source gives them in different places.

Columns and labels:
CmlI [1] = molecular target: T1, CmlI (Streptomyces venezuelae, UniProt F2RB83); experiment: stopped-flow at […] nm, hyperbolic fit of reciprocal relaxation times; assay type: binding
CmlI [2] = molecular target: T1, CmlI; experiment: as above; assay type: binding; remark: listed apart in the source

T1 sequence (F2RB83 whole entry): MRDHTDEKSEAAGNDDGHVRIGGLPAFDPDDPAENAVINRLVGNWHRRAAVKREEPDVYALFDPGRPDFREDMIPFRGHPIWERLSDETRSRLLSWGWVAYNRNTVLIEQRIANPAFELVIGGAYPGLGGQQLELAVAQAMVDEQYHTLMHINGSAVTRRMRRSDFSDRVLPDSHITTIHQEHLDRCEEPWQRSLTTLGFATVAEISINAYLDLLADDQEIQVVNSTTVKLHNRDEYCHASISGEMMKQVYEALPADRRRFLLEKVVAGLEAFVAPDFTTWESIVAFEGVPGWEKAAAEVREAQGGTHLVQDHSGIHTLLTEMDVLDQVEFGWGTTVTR

SMILES	Kd (CmlI [1]) [mM]	Kd (CmlI [2]) [mM]
Nc1ccc([C@@H](O)[C@@H](CO)NC(=O)C(Cl)Cl)cc1 [NH2-CAM, D-threo-1-(4-aminophenyl)-2-dichloroacetylamino-1,3-propanediol]	8.5 ± 1.5	–
O=C(N[C@H](CO)[C@H](O)c1ccc(NO)cc1)C(Cl)Cl [NH(OH)-CAM]	–	1.1 ± 0.05
O=Nc1ccc([C@@H](O)[C@@H](CO)NC(=O)C(Cl)Cl)cc1 [NO-CAM]	8.6 ± 1	–
